Measured values reported in patent US4871765A, “Amine derivative and its salt and anti-ulcer agent containing the same” (Toyama Chemical Co., Ltd., priority 1987, dated 1989).

What was measured:
Acute toxicity = type: in vivo; conditions: mouse, in vivo; ICR mice (male, 27-30 g), intravenous, up and down method
Procedure: (§1) A test compound was administered to ICR mice (male, 27-30 g) intravenously,and the LD50 value was calculated by the up and down method.

gastric acid secretion = assay: Inhibitory activity on gastric acid secretion (pylorus ligation method); type: in vivo, Wistar rats (male); conditions: intraduodenal, histamine 25 mg/kg s.c., 3 hours
Procedure: [I] Inhibitory activity on gastric acid secretion (pylorus ligation method)
This activity was measured in accordance with the method by H. Shay et al. described in Gastroenterology, 5, 43 (1945). Groups of six or seven Wistar rats (male, 190-230 g) were fasted for 24 hours, following which the pylorus of each rat was ligated under ether anesthesia. The test compounds were administered intraduodenally after ligation. Thereafter, the rats were subjected to celiorrhaphy and immediately 25 mg/kg of histamine was administered to them subcutaneously at the dorsal. After 3 hours, the cardia of stomach was ligated, and then the stomach was removed. The gastric juice was collected by centrifugation and the total amount was quantitated. 1 ml of the gastric juice was taken and titrated with a 0.1 N aqueous sodium hydroxide solution to an end point of pH 7.0. In administering the test compound, the compound was dissolved in dimethyl sulfoxide (DMSO) and then diluted with distilled water to obtain a 0.25% aqueous DMSO solution containing the test compound. A 0.25% aqueous DMSO solution containing no test compound was administered to control group.
The inhibition rate of gastric acid secretion was calculated from the following equation: [formula]

ICR mice = assay: Acute toxicity; type: in vivo; conditions: ICR mice (male, 27-30 g), intravenous, up and down method
Procedure: as §1

## CN(C)Cc1ccc(CSCCNC(=NS(C)(=O)=O)NCC(O)c2ccc(O)cc2)o1 (stereo not shown) [Test compound 5, reference compound]
Acute toxicity
  LD50: 90.7 mg/kg

## CNCc1ccc(CSCCNC(=NS(C)(=O)=O)NCC(O)c2ccc(O)cc2)o1 (stereo not shown) [compound 1]
Gastric acid secretion; Rattus norvegicus, dose 0.625 mg/kg, **p < 0.01, read-out: Inhibition rate
  inhibition at 0.625 mg/kg: 67.6%
Gastric acid secretion; Rattus norvegicus, dose 1.25 mg/kg, **p < 0.01, *p < 0.05, read-out: Inhibition rate
  inhibition at 1.25 mg/kg: 82.2%
Acute toxicity
  LD50: 100 mg/kg

## N-[2-(4-carbamoylphenyl)-2-hydroxyethyl]-N'-methanesulfonyl-N"-[2-[[5-(methylamino)methyl-2furyl]-methylthio]ethyl]guanidine [Test compound 2]
ICR mice
  LD50: 129.8 mg/kg

## N-[2-hydroxy-2-(4-hydroxyphenyl)ethyl]-N'-methanesulfonyl-N"-[2-[[5-(methylamino)methyl-2-furyl]methylthio]ethyl]guanidine [Example 1 (1)]
Gastric acid secretion; dose 1.25 mg/kg, **p < 0.01, *p < 0.05, listed as 2
  Inhibition rate: 51.3%
Gastric acid secretion; dose 1.25 mg/kg, **p < 0.01, *p < 0.05, listed as 3
  Inhibition rate: 54.2%
Gastric acid secretion; dose 1.25 mg/kg, **p < 0.01, *p < 0.05, listed as 4
  Inhibition rate: 30.6%

## N-[2-hydroxy-2-[3-(methanesulfonylamino)phenyl]ethyl]-N'-methanesulfonyl-N"-[2-[[5-(methylamino)-methyl-2-furyl]methylthio]ethyl]guanidine [Test compound 3]
ICR mice
  LD50: 151.0 mg/kg

## S(-)-N-[2-hydroxy-2-(4-hydroxyphenyl)ethyl]-N'-methanesulfonyl-N"-[2-[[5-(methylamino)methyl-2-furyl]methylthio]ethyl]guanidine [Example 5]
Gastric acid secretion; dose 5.0 mg/kg
  Inhibition rate: 32.7%
